In patent US5010073A, “Use of liposomes as carriers for metalloporphyrins” (The Rockefeller University, priority 1990, dated 1991):
Read-outs that look alike come from different tables or passages of the source.

Tests used:
plasma bilirubin levels = assay: Lowering plasma bilirubin levels in newborn animals; format: in vivo
bilirubin levels [1] = conditions: cited from earlier work
bilirubin levels [2] = conditions: cited from earlier work; remark: listed apart in the source
heme oxygenase [3] = assay: Inhibition of splenic and hepatic heme oxygenase after injection; format: in vivo, rat; conditions: single animal; for Heme Oxygenase activity Liver: saline 2.3 ± 0.6; for Heme Oxygenase activity Spleen: saline 9.0 ± 2.4
Method: Liver were perfused in situ with ice cold 0.9% NaCl and subsequently homogenized in 3 volumes of 0.1 M potassium phosphate buffer, pH 7.4, containing 0.25 M sucrose. […] Splenic microsomes were prepared in an identical manner. The cytosolic fraction obtained from the liver of control (saline-injected) animals served as a source of bilirubin reductase for subsequent analysis of heme oxygenase activity. Assays for heme oxygenase and metalloporphyrin concentration were performed on fresh microsomes whenever possible. Otherwise, microsomal fractions were kept at liquid nitrogen temperatures until the time of assay.
The activity of heme oxygenase in tissues was determined as described by Drummond and Kappas, supra. […] Standard settings for the two metalloporphyrins examined were: […]
The rats were sacrificed at varying times after injection for measurements of hepatic and splenic heme oxygenase activity.

bilirubin levels [4] = conditions: NEONATAL MONKEY; dose 24-185 umoles/kg; cited from earlier work
[5] = cited from earlier work
heme oxygenase [6] = conditions: rats, cited from earlier work
heme oxygenase [7] = assay: Efficacy as heme oxygenase inhibitors (statements in words); conditions: at the same concentrations as SnPP
[8] = Toxicity of chromium porphyrin preparations; format: in vivo; conditions: aqueous: isotonic aqueous media at the same level as SnPP; liposomal: at effective dosage levels

C=CC1=C(C)c2cc3[n-]c(cc4[n-]c(cc5nc(cc1n2)C(C)=C5C=C)c(C)c4CCC(=O)[O-])c(CCC(=O)[O-])c3C.[H+].[H+].[Mn+2] [MnPP, manganese protoporphyrin]
lowering plasma bilirubin levels (plasma bilirubin levels): ineffective

C=Cc1c2[n-]c(c1C)/C=c1\[n-]/c(c(C)c1C=C)=C\c1[n-]c(c(CCC(=O)O)c1C)/C=c1\[n-]c(c(C)c1CCC(=O)O)=C2.[Sn+4] [SnPP, tin protoporphyrin]
BILIRUBIN/CO REDUCTION (percent) (bilirubin levels [1]; ABO INCOMPATIBILITY-MAN, dose 0.5 umoles/kg): 21-32%
BILIRUBIN/CO REDUCTION (percent) (bilirubin levels [1]; BILIARY CIRRHOSIS-MAN, dose 0.25-2.0 umoles/kg): 7-23%
BILIRUBIN/CO REDUCTION (percent) (bilirubin levels [1]; GILBERT'S DISEASE-MAN, dose 0.5-1.8 umoles/kg): 29-43%
BILIRUBIN/CO REDUCTION (percent) (bilirubin levels [1]; NORMAL ADULT-MAN, dose 1-2 umoles/kg): 38-47%
BILIRUBIN/CO REDUCTION (percent) (bilirubin levels [2]; BILE DUCT LIGATED RAT, dose 100 umoles/kg): 62-70%
BILIRUBIN/CO REDUCTION (percent) (bilirubin levels [2]; NEONATAL GUNN RAT, dose 50 umoles/kg): 19%
BILIRUBIN/CO REDUCTION (percent) (bilirubin levels [2]; NEONATAL RAT/HEMATOMA, dose 65 umoles/kg): 25%
BILIRUBIN/CO REDUCTION (percent) (bilirubin levels [2]; NORMAL ADULT RAT, dose 10-50 umoles/kg): 24-30%
Heme Oxygenase activity Liver (heme oxygenase [3]; 10 μm/kg IV, 16 hrs): 0.6 nm bilirubin/hr/mg. protein
Heme Oxygenase activity Spleen (heme oxygenase [3]; 10 μm/kg IV, 16 hrs): 3.6 nm bilirubin/hr/mg. protein
Heme Oxygenase activity Liver (heme oxygenase [3]; 10 μm/kg IV, 48 hrs): 1.0 nm bilirubin/hr/mg. protein
Heme Oxygenase activity Spleen (heme oxygenase [3]; 10 μm/kg IV, 48 hrs): 5.9 nm bilirubin/hr/mg. protein
Heme Oxygenase activity Liver (heme oxygenase [3]; 50 μm/kg IV, 16 hrs): 0.4 nm bilirubin/hr/mg. protein
Heme Oxygenase activity Spleen (heme oxygenase [3]; 50 μm/kg IV, 16 hrs): 5.3 nm bilirubin/hr/mg. protein
Heme Oxygenase activity Liver (heme oxygenase [3]; 50 μm/kg IV, 48 hrs): 0.5 nm bilirubin/hr/mg. protein
Heme Oxygenase activity Spleen (heme oxygenase [3]; 50 μm/kg IV, 48 hrs): 6.3 nm bilirubin/hr/mg. protein
BILIRUBIN/CO REDUCTION (percent) (bilirubin levels [4]): 91%
CONCENTRATION OF SnPP IN ORGAN @ 24 HOURS, MICROSOMES ([5]; LIVER, rats, intravenous): 146-284 pm/mg. protein
CONCENTRATION OF SnPP IN ORGAN @ 24 HOURS, MICROSOMES ([5]; SPLEEN, rats, intravenous): 60 -90 pm/mg. protein
concentration of SnPP in the spleen relative to SnPP concentration in the liver ([5]; rat, in vivo, iv): one-fourth
concentration ([5]; read-out: CONCENTRATION OF SnPP IN ORGAN @ 24 HOURS, HOMOGENATE, SPLEEN, rats, intravenous, Mean ± SE for 3-4 rats): 6.5 ± 0.6 µM
HEME OXYGENASE ACTIVITY 24 HOURS AFTER TREATMENT (heme oxygenase [6]; KIDNEY, prior to treatment 1.8 ± 0.2): 0.6 ± 0.1 nm bilirubin/hr/mg. protein
HEME OXYGENASE ACTIVITY 24 HOURS AFTER TREATMENT (heme oxygenase [6]; LIVER, prior to treatment 2.7 ± 0,3): 0.3 ± 0.04 nm bilirubin/hr/mg. protein
HEME OXYGENASE ACTIVITY 24 HOURS AFTER TREATMENT (heme oxygenase [6]; SPLEEN, prior to treatment 12.4 ± 0.4): 2.3 ± 0.3 nm bilirubin/hr/mg. protein
inhibition of splenic heme oxygenase (heme oxygenase [6]; following intravenous administration): 50-75%

C=CC1=C(C)c2cc3[n-]c(cc4nc(cc5[n-]c(cc1n2)c(C)c5C=C)C(C)=C4CCC(=O)O)c(CCC(=O)O)c3C.[Zn+2] [ZnPP, zinc protoporphyrin]
efficacy as heme oxygenase inhibitor relative to SnPP (heme oxygenase [7]): relatively ineffective
BILIRUBIN/CO REDUCTION (percent) (bilirubin levels [2]; NORMAL ADULT RAT, dose 4-40 umoles/kg (ZnPP)): 20-30%

chromium protoporphyrin [CrPP]
toxicity [8]: exhibits some toxicity
BILIRUBIN/CO REDUCTION (percent) (bilirubin levels [2]; NEONATAL RAT, dose 10 umoles/kg (CrPP)): 32%
